Read-outs that look alike come from different tables or passages of the source.
Columns and labels:
[1] = Plasma pharmacokinetics after a single oral RK dose, male vs female mice; assay type: in vivo, C57BL/6J mice
[2] = assay type: in vivo, C57BL/6J mice; settings: for Cmax: mean±SEM; for presence in the brain: brain of either sexes after oral RK
[3] = Plasma pharmacokinetics after a single oral RK dose, normal-weight; assay type: in vivo, C57BL/6J mice; settings: for AUC(0-t): AUC (0–12 h); for half-life: T1/2 (elimination half-life)
[4] = assay type: in vivo, C57BL/6J mice; settings: single oral RK 200 mg kg^−1; for half-life: T1/2 (elimination half-life)
[5] = Distribution in white adipose tissue; assay type: in vivo, C57BL/6J mice; settings: epididymal WAT; for time within which considerable accumulation in WAT was observed: male mice, oral RK 200 mg kg^−1; for increase in WAT level in obese animals compared with normal-weight: between 15 and 30 min
[6] = assay type: in vivo; settings: in 24 h, normal-weight male mice, preliminary dosing tests
[7] = female, C57BL/6J, mouse, plasma, po, 200 mg/kg
[8] = male, C57BL/6J, mouse, plasma, po, 200 mg/kg
[9] = Br-F: brain, female LFD mice, single oral RK 200 mg kg^−1
[10] = Br-M: brain, male LFD mice, single oral RK 200 mg kg^−1
[11] = female, C57BL/6J, mouse, brain, po, 200 mg/kg
[12] = male, C57BL/6J, mouse, brain, po, 200 mg/kg
[13] = male, C57BL/6J, mouse, plasma, po, 200 mg/kg, Pl-N: plasma, normal-weight male mice, single oral RK 200 mg kg^−1
[14] = male, C57BL/6J, mouse, plasma, po, 200 mg/kg, Pl-O: plasma, obese male mice, single oral RK 200 mg kg^−1
[15] = male, C57BL/6J, mouse, plasma, po, 200 mg/kg, Tmax, Pl-N: plasma, normal-weight male mice, single oral RK 200 mg kg^−1
[16] = Br-N: brain, normal-weight male mice
[17] = male, C57BL/6J, mouse, brain, po, 200 mg/kg, Br-N: brain, normal-weight male mice
[18] = male, C57BL/6J, mouse, brain, po, 200 mg/kg, Tmax, Br-N: brain, normal-weight male mice
[19] = male, C57BL/6J, mouse, brain, po, 200 mg/kg, Br-O: brain, obese male mice
[20] = Pl-F: plasma, female LFD mice, single oral RK 200 mg kg^−1
[21] = Pl-M: plasma, male LFD mice, single oral RK 200 mg kg^−1
[22] = Pl-N: plasma, normal-weight male mice, single oral RK 200 mg kg^−1
[23] = Pl-O: plasma, obese male mice, single oral RK 200 mg kg^−1

## OCCc1ccc(O)c(O)c1 [3,4-DHPE, 2-(3,4-dihydroxyphenyl)ethanol]
[1]; [7]
  Cmax: 0.024 ± 0.002 µM
  Tmax: 15 min
  half-life: 63.6 ± 6.84 min
[1]; [8]
  AUC(0-t): 0.057 ± 0.006 µM·h
  Tmax: 20 min
  half-life: 41.8 ± 1.25 min
[2]; [9]
  Cmax: 0.020 ± 0.006 nmol/g
[2]; [10]
  Cmax: 0.021 ± 0.003 nmol/g
[2]; [11]
  Tmax: 15 min
  half-life: 20.3 ± 1.41 min
[2]; [12]
  Tmax: 15 min
  half-life: 21 ± 0.16 min
[3]; [13]
  AUC(0-t): 0.08 ± 0.006 µM·h
  half-life: 48.9 ± 6.9 min
[3]; [14]
  half-life: 51.7 ± 4.36 min
[3]; [15]
  Tmax: 20 min
[4]; [16]
  Cmax: 0.031 ± 0.003 nmol/g
[4]; Br-O: brain, obese male mice
  Cmax: 0.025 ± 0.002 nmol/g
[4]; [17]
  half-life: 35.5 ± 3.94 min
[4]; [18]
  Tmax: 20 min

## O=C(O)CCc1cccc(O)c1 [3-(3-hydroxyphenyl)propionic acid]
[2]
  presence in the brain: not found

## OCCc1ccc(O)cc1 [4-HPE, 2-(4-hydroxyphenyl)ethanol]
[1]; [7]
  AUC(0-t): 98.7 ± 7.38 µM·h
  Cmax: 43.6 ± 2.9 µM
  Tmax: 40 min
[1]; [8]
  AUC(0-t): 108 ± 10.9 µM·h
  Tmax: 50 min
  half-life: 104 ± 2.1 min
[2]; [9]
  Cmax: 1.28 ± 0.08 nmol/g
[2]; [10]
  Cmax: 1.03 ± 0.14 nmol/g
[2]; [11]
  Tmax: 20 min
[2]; [12]
  Tmax: 15 min
  half-life: 64.7 ± 7.78 min
[3]; [13]
  AUC(0-t): 20.7 ± 2.92 µM·h
  half-life: 73 ± 4.7 min
[3]; [14]
  AUC(0-t): 28.7 ± 3.65 µM·h
  half-life: 56.3 ± 8.8 min
[3]; [15]
  Tmax: 20 min
[4]; [16]
  Cmax: 6.14 ± 0.49 nmol/g
[4]; Br-O: brain, obese male mice
  Cmax: 7.92 ± 1.60 nmol/g
[4]; [17]
  half-life: 31.5 ± 4.38 min
[4]; [19]
  half-life: 38.8 ± 2.56 min
[4]; [18]
  Tmax: 25 min
[5]
  time within which considerable accumulation in WAT was observed: ≤ 15 min

## CC(=O)C=Cc1ccc(O)c(O)c1 [DHPhLiAce, 3,4-dihydroxybenzylideneacetone]
[1]; [7]
  Tmax: 15 min
  half-life: 30 ± 4.24 min
[1]; [8]
  AUC(0-t): 0.465 ± 0.046 µM·h
  Tmax: 40 min
  half-life: 41.4 ± 2.91 min
[2]; [9]
  Cmax: 0.112 ± 0.042 nmol/g
[2]; [10]
  Cmax: 0.067 ± 0.011 nmol/g
[2]; [11]
  Tmax: 25 min
  half-life: 35.8 ± 2.29 min
[2]; [12]
  Tmax: 20 min
  half-life: 33.4 ± 0.73 min
[3]; [13]
  AUC(0-t): 1.04 ± 0.16 µM·h
  half-life: 41.6 ± 3 min
[3]; [14]
  AUC(0-t): 1.38 ± 0.04 µM·h
  half-life: 48 ± 2.1 min
[3]; [15]
  Tmax: 30 min
[4]; [16]
  Cmax: 0.23 ± 0.012 nmol/g
[4]; [17]
  half-life: 36.2 ± 1.6 min
[4]; [19]
  half-life: 37.2 ± 0.22 min
[4]; [18]
  Tmax: 30 min
[5]
  time within which considerable accumulation in WAT was observed: ≤ 15 min

## CC(=O)CCc1ccc(O)cc1 [RK, 4-(4-hydroxyphenyl)-2-butanone]
[1]; both, C57BL/6J, mouse, plasma, po, 200 mg/kg
  Tmax: ~15 min
[1]; [7]
  AUC(0-t): 299 ± 20.2 µM·h
  Cmax: 281 ± 17.1 µM
  Tmax: 15 min
[1]; [8]
  AUC(0-t): 358 ± 34 µM·h
  Tmax: 15 min
  half-life: 78.4 ± 3.55 min
[1]; oral RK 200 mg kg^−1, this study
  time of absorption and tissue accumulation: < 30 min
[2]; [9]
  Cmax: 37.4 ± 8.73 nmol/g
[2]; [10]
  Cmax: 28.9 ± 2.42 nmol/g
[2]; [11]
  Tmax: 15 min
  half-life: 28.3 ± 1.65 min
[2]; [12]
  Tmax: 15 min
  half-life: 25.7 ± 2 min
[3]; [13]
  AUC(0-t): 387 ± 25.6 µM·h
  half-life: 73.3 ± 1.2 min
[3]; [14]
  half-life: 94.7 ± 7.8 min
[3]; [15]
  Tmax: 15 min
[3]; plasma, normal-weight mice
  maximal circulating concentration: 236 nM
[3]; plasma, obese mice
  maximal circulating concentration: 318 nM
[3]; plasma, obese vs normal-weight
  twelve-hour plasma accumulation in obese animals as % of normal-weight ones: 152.2–197.6%
[4]; [16]
  Cmax: 32.7 ± 4.34 nmol/g
[4]; Br-O: brain, obese male mice
  Cmax: 46.7 ± 6.2 nmol/g
[4]; [17]
  half-life: 39.5 ± 1.9 min
[4]; [19]
  half-life: 41.5 ± 4 min
[4]; [18]
  Tmax: 20 min
[5]
  increase in WAT level in obese animals compared with normal-weight: 30–90%
  time within which considerable accumulation in WAT was observed: ≤ 15 min
[5]; between 30 min and 2 h, obese vs normal-weight
  higher residual content in WAT of obese mice: > 100%
[6]
  clearance from the bloodstream: > 99%

## COc1ccc(CCC(C)=O)cc1 [RK-Me, 4-(4-methoxy-phenyl)-2-butanone]
[1]; [7]
  AUC(0-t): 0.069 ± 0.01 µM·h
  Cmax: 0.086 ± 0.022 µM
  Tmax: 25 min
  half-life: 31.4 ± 1.84 min
[1]; [8]
  AUC(0-t): 0.05 ± 0.005 µM·h
  Tmax: 20 min
  half-life: 26.7 ± 2.81 min
[2]
  presence in the brain: not found
[3]; [13]
  AUC(0-t): 0.039 ± 0.008 µM·h
  half-life: 31 ± 5.6 min
[3]; [14]
  AUC(0-t): 0.047 ± 0.007 µM·h
  half-life: 41.7 ± 1.2 min
[3]; [15]
  Tmax: 20 min
[5]
  time within which considerable accumulation in WAT was observed: ≤ 15 min

## CC(O)CCc1ccc(O)cc1 (stereo not drawn) [ROH, raspberry alcohol]
[1]; [20]
  AUC (0–12 h): 158 ± 17.1 nmol/mL/min
  Tmax: 25.0 ± 4.99 min
[1]; Pl-F: plasma, female LFD mice, single oral RK 200 mg kg^−1, mean±SEM
  Cmax: 130 ± 12.7 µM
[1]; [21]
  AUC (0–12 h): 177 ± 11.8 nmol/mL/min
  T1/2 (elimination half-life): 63.2 ± 2.61 min
  Tmax: 25.0 ± 4.99 min
[2]; [9]
  Cmax: 21.6 ± 4.72 nmol/g
[2]; [10]
  T1/2 (elimination half-life): 32.0 ± 0.77 min
  Tmax: 20.0 ± 5.0 min
  Cmax: 21.0 ± 2.68 nmol/g
[3]; [22]
  AUC (0–12 h): 208 ± 22.0 nmol/mL/min
  T1/2 (elimination half-life): 66.1 ± 1.7 min
  Tmax: 25.0 ± 5.0 min
[3]; [23]
  T1/2 (elimination half-life): 70.0 ± 1.5 min
  Tmax: 50.0 ± 10.0 min
[4]; [16]
  Cmax: 55.1 ± 8.12 nmol/g
  T1/2 (elimination half-life): 33.7 ± 2.2 min
  Tmax: 20.0 ± 5.0 min
[4]; Br-O: brain, obese male mice
  Cmax: 60.3 ± 6.6 nmol/g
  Tmax: 40.0 ± 10.0 min
[5]
  increase in WAT level in obese animals compared with normal-weight: 30–90%
  time within which considerable accumulation in WAT was observed: ≤ 15 min

## COc1cc(CCC(C)=O)ccc1O [VLAce, vanillylacetone]
[1]; [7]
  Cmax: 9.94 ± 2.4 µM
  Tmax: 15 min
[1]; [8]
  AUC(0-t): 31 ± 3.65 µM·h
  Tmax: 25 min
  half-life: 46.4 ± 2.1 min
[2]; [9]
  Cmax: 1.49 ± 0.30 nmol/g
[2]; [10]
  Cmax: 1.51 ± 0.15 nmol/g
[2]; [11]
  half-life: 89.2 ± 10 min
[2]; [12]
  Tmax: 15 min
  half-life: 84.1 ± 3.55 min
[3]; [13]
  AUC(0-t): 61.2 ± 4.7 µM·h
  half-life: 40.9 ± 4.8 min
[3]; [14]
  half-life: 68.8 ± 17.3 min
[3]; [15]
  Tmax: 25 min
[4]; [16]
  Cmax: 2.07 ± 0.24 nmol/g
[4]; [17]
  half-life: 44.4 ± 2.18 min
[4]; [18]
  Tmax: 40 min
[5]
  time within which considerable accumulation in WAT was observed: ≤ 15 min

## CC(=O)C=Cc1ccccc1 [benzylideneacetone]
[2]
  presence in the brain: not found

## COc1cc(/C=C/C(=O)O)ccc1O [ferulic acid]
[2]
  presence in the brain: not found

Reference: paper PMC7329366 (Molecular nutrition & food research, 2020)
